{"source": "patent US20220324815A1", "about": "“2-PHENOXY-PYRIMIDINE DERIVATIVES AS HERBICIDAL COMPOUNDS” (SYNGENTA CROP PROTECTION AG, priority 2019, published 2022)", "assay_type_in_all_cases": "in vivo", "conditions_in_all_cases": "250 g/ha unless otherwise stated, evaluated after 13 days, five-point scale", "key": {"[1]": {"system": "Amaranthus retoflexus (AMARE)", "test": "Test 1 glasshouse herbicide test, post-emergence application (Table B1)", "how_it_was_run": "(§1)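 Score is % phytotoxicity after 13 days, binned 1 (0–20%) to 5 (81–100%). Compound given at 250 g/ha unless stated, as acetone/water (50:50) spray with 0.5% Tween 20, one day post-sowing (pre-emergence) or after 8 days' growth (post-emergence); glasshouse at 24/16 °C day/night, 14 h light, 65% humidity.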"}, "[2]": {"system": "Ipomoea hederacea (IPOHE)", "test": "Test 1 glasshouse herbicide test, post-emergence application (Table B1)", "how_it_was_run": "as §1"}, "[3]": {"system": "Echinochloa crus-galli (ECHCG)", "test": "Test 1 glasshouse herbicide test, post-emergence application (Table B1)", "how_it_was_run": "as §1"}, "Setaria faberi (SETFA) [4]": {"system": "Setaria faberi (SETFA)", "test": "Test 1 glasshouse herbicide test, post-emergence application (Table B1)", "how_it_was_run": "as §1"}, "[5]": {"system": "Amaranthus retoflexus (AMARE)", "test": "Test 1 glasshouse herbicide test, pre-emergence application (Table B2)", "how_it_was_run": "as §1"}, "[6]": {"system": "Ipomoea hederacea (IPOHE)", "test": "Test 1 glasshouse herbicide test, pre-emergence application (Table B2)", "how_it_was_run": "as §1"}, "[7]": {"system": "Echinochloa crus-galli (ECHCG)", "test": "Test 1 glasshouse herbicide test, pre-emergence application (Table B2)", "how_it_was_run": "as §1"}, "Setaria faberi (SETFA) [8]": {"system": "Setaria faberi (SETFA)", "test": "Test 1 glasshouse herbicide test, pre-emergence application (Table B2)", "how_it_was_run": "as §1"}}, "data": [{"smiles": "FC(F)CCCSc1c(Cl)cccc1Oc1ncc(Cl)cn1", "note": "[Compound A105, 5-chloro-2-[3-chloro-2-(4,4-difluorobutylsulfanyl)phenoxy]pyrimidine]", "values": [{"measurement": "% phytotoxicity AMARE, post-emergence application", "setting": "[1]", "result": "5 (5=81 to 100%)"}, {"measurement": "% phytotoxicity IPOHE, post-emergence application", "setting": "[2]", "result": "4 (4=61 to 80%)"}, {"measurement": "% phytotoxicity ECHCG, post-emergence application", "setting": "[3]", "result": "5 (5=81 to 100%)"}, {"measurement": "% phytotoxicity SETFA, post-emergence application", "setting": "Setaria faberi (SETFA) [4]", "result": "5 (5=81 to 100%)"}, {"measurement": "% phytotoxicity AMARE, pre-emergence application", "setting": "[5]", "result": "5 (5=81 to 100%)"}, {"measurement": "% phytotoxicity IPOHE, pre-emergence application", "setting": "[6]", "result": "4 (4=61 to 80%)"}, {"measurement": "% phytotoxicity ECHCG, pre-emergence application", "setting": "[7]", "result": "5 (5=81 to 100%)"}, {"measurement": "% phytotoxicity SETFA, pre-emergence application", "setting": "Setaria faberi (SETFA) [8]", "result": "5 (5=81 to 100%)"}]}, {"smiles": "N#Cc1cccc(Oc2ncc(Cl)cn2)c1SCCOC(F)(F)F", "note": "[Compound A106]", "values": [{"measurement": "% phytotoxicity AMARE, post-emergence application", "setting": "[1]", "result": "5 (5=81 to 100%)"}, {"measurement": "% phytotoxicity IPOHE, post-emergence application", "setting": "[2]", "result": "3 (3=41 to 60%)"}, {"measurement": "% phytotoxicity ECHCG, post-emergence application", "setting": "[3]", "result": "5 (5=81 to 100%)"}, {"measurement": "% phytotoxicity SETFA, post-emergence application", "setting": "Setaria faberi (SETFA) [4]", "result": "4 (4=61 to 80%)"}, {"measurement": "% phytotoxicity AMARE, pre-emergence application", "setting": "[5]", "result": "5 (5=81 to 100%)"}, {"measurement": "% phytotoxicity IPOHE, pre-emergence application", "setting": "[6]", "result": "2 (2=21 to 40%)"}, {"measurement": "% phytotoxicity ECHCG, pre-emergence application", "setting": "[7]", "result": "5 (5=81 to 100%)"}, {"measurement": "% phytotoxicity SETFA, pre-emergence application", "setting": "Setaria faberi (SETFA) [8]", "result": "5 (5=81 to 100%)"}]}, {"smiles": "N#Cc1cccc(Oc2ncc(Cl)cn2)c1SCCOCC(F)(F)F", "note": "[Compound A107]", "values": [{"measurement": "% phytotoxicity AMARE, post-emergence application", "setting": "[1]", "result": "5 (5=81 to 100%)"}, {"measurement": "% phytotoxicity IPOHE, post-emergence application", "setting": "[2]", "result": "2 (2=21 to 40%)"}, {"measurement": "% phytotoxicity ECHCG, post-emergence application", "setting": "[3]", "result": "5 (5=81 to 100%)"}, {"measurement": "% phytotoxicity SETFA, post-emergence application", "setting": "Setaria faberi (SETFA) [4]", "result": "4 (4=61 to 80%)"}, {"measurement": "% phytotoxicity AMARE, pre-emergence application", "setting": "[5]", "result": "5 (5=81 to 100%)"}, {"measurement": "% phytotoxicity IPOHE, pre-emergence application", "setting": "[6]", "result": "3 (3=41 to 60%)"}, {"measurement": "% phytotoxicity ECHCG, pre-emergence application", "setting": "[7]", "result": "5 (5=81 to 100%)"}, {"measurement": "% phytotoxicity SETFA, pre-emergence application", "setting": "Setaria faberi (SETFA) [8]", "result": "5 (5=81 to 100%)"}]}, {"smiles": "N#Cc1cccc(Oc2ncc(Cl)cn2)c1S(=O)(=O)CCOCC(F)(F)F", "note": "[Compound A108]", "values": [{"measurement": "% phytotoxicity AMARE, post-emergence application", "setting": "[1]", "result": "4 (4=61 to 80%)"}, {"measurement": "% phytotoxicity IPOHE, post-emergence application", "setting": "[2]", "result": "2 (2=21 to 40%)"}, {"measurement": "% phytotoxicity ECHCG, post-emergence application", "setting": "[3]", "result": "1 (1=0 to 20%)"}, {"measurement": "% phytotoxicity SETFA, post-emergence application", "setting": "Setaria faberi (SETFA) [4]", "result": "1 (1=0 to 20%)"}, {"measurement": "% phytotoxicity AMARE, pre-emergence application", "setting": "[5]", "result": "5 (5=81 to 100%)"}, {"measurement": "% phytotoxicity IPOHE, pre-emergence application", "setting": "[6]", "result": "1 (1=0 to 20%)"}, {"measurement": "% phytotoxicity ECHCG, pre-emergence application", "setting": "[7]", "result": "1 (1=0 to 20%)"}, {"measurement": "% phytotoxicity SETFA, pre-emergence application", "setting": "Setaria faberi (SETFA) [8]", "result": "1 (1=0 to 20%)"}]}, {"smiles": "COc1cnc(Oc2cccc(C#N)c2S(=O)(=O)CCCC(F)(F)F)nc1", "note": "[Compound A112]", "values": [{"measurement": "% phytotoxicity AMARE, post-emergence application", "setting": "[1]", "result": "2 (2=21 to 40%)"}, {"measurement": "% phytotoxicity IPOHE, post-emergence application", "setting": "[2]", "result": "2 (2=21 to 40%)"}, {"measurement": "% phytotoxicity ECHCG, post-emergence application", "setting": "[3]", "result": "1 (1=0 to 20%)"}, {"measurement": "% phytotoxicity SETFA, post-emergence application", "setting": "Setaria faberi (SETFA) [4]", "result": "1 (1=0 to 20%)"}, {"measurement": "% phytotoxicity AMARE, pre-emergence application", "setting": "[5]", "result": "3 (3=41 to 60%)"}, {"measurement": "% phytotoxicity IPOHE, pre-emergence application", "setting": "[6]", "result": "3 (3=41 to 60%)"}, {"measurement": "% phytotoxicity ECHCG, pre-emergence application", "setting": "[7]", "result": "1 (1=0 to 20%)"}, {"measurement": "% phytotoxicity SETFA, pre-emergence application", "setting": "Setaria faberi (SETFA) [8]", "result": "1 (1=0 to 20%)"}]}, {"smiles": "COc1cnc(Oc2cccc(C#N)c2SCCCC(F)(F)F)nc1", "note": "[Compound A113]", "values": [{"measurement": "% phytotoxicity AMARE, post-emergence application", "setting": "[1]", "result": "5 (5=81 to 100%)"}, {"measurement": "% phytotoxicity IPOHE, post-emergence application", "setting": "[2]", "result": "3 (3=41 to 60%)"}, {"measurement": "% phytotoxicity ECHCG, post-emergence application", "setting": "[3]", "result": "3 (3=41 to 60%)"}, {"measurement": "% phytotoxicity SETFA, post-emergence application", "setting": "Setaria faberi (SETFA) [4]", "result": "2 (2=21 to 40%)"}, {"measurement": "% phytotoxicity AMARE, pre-emergence application", "setting": "[5]", "result": "5 (5=81 to 100%)"}, {"measurement": "% phytotoxicity IPOHE, pre-emergence application", "setting": "[6]", "result": "3 (3=41 to 60%)"}, {"measurement": "% phytotoxicity ECHCG, pre-emergence application", "setting": "[7]", "result": "4 (4=61 to 80%)"}, {"measurement": "% phytotoxicity SETFA, pre-emergence application", "setting": "Setaria faberi (SETFA) [8]", "result": "2 (2=21 to 40%)"}]}, {"smiles": "Cc1cnc(Oc2cccc(C#N)c2SCCCC(F)(F)F)nc1", "note": "[Compound A114]", "values": [{"measurement": "% phytotoxicity AMARE, post-emergence application", "setting": "[1]", "result": "3 (3=41 to 60%)"}, {"measurement": "% phytotoxicity IPOHE, post-emergence application", "setting": "[2]", "result": "4 (4=61 to 80%)"}, {"measurement": "% phytotoxicity ECHCG, post-emergence application", "setting": "[3]", "result": "4 (4=61 to 80%)"}, {"measurement": "% phytotoxicity SETFA, post-emergence application", "setting": "Setaria faberi (SETFA) [4]", "result": "3 (3=41 to 60%)"}, {"measurement": "% phytotoxicity AMARE, pre-emergence application", "setting": "[5]", "result": "5 (5=81 to 100%)"}, {"measurement": "% phytotoxicity IPOHE, pre-emergence application", "setting": "[6]", "result": "4 (4=61 to 80%)"}, {"measurement": "% phytotoxicity ECHCG, pre-emergence application", "setting": "[7]", "result": "4 (4=61 to 80%)"}, {"measurement": "% phytotoxicity SETFA, pre-emergence application", "setting": "Setaria faberi (SETFA) [8]", "result": "4 (4=61 to 80%)"}]}, {"smiles": "Cc1cnc(Oc2cccc(C#N)c2S(=O)(=O)CCCC(F)(F)F)nc1", "note": "[Compound A115]", "values": [{"measurement": "% phytotoxicity AMARE, post-emergence application", "setting": "[1]", "result": "4 (4=61 to 80%)"}, {"measurement": "% phytotoxicity IPOHE, post-emergence application", "setting": "[2]", "result": "4 (4=61 to 80%)"}, {"measurement": "% phytotoxicity ECHCG, post-emergence application", "setting": "[3]", "result": "4 (4=61 to 80%)"}, {"measurement": "% phytotoxicity SETFA, post-emergence application", "setting": "Setaria faberi (SETFA) [4]", "result": "3 (3=41 to 60%)"}, {"measurement": "% phytotoxicity AMARE, pre-emergence application", "setting": "[5]", "result": "5 (5=81 to 100%)"}, {"measurement": "% phytotoxicity IPOHE, pre-emergence application", "setting": "[6]", "result": "5 (5=81 to 100%)"}, {"measurement": "% phytotoxicity ECHCG, pre-emergence application", "setting": "[7]", "result": "4 (4=61 to 80%)"}, {"measurement": "% phytotoxicity SETFA, pre-emergence application", "setting": "Setaria faberi (SETFA) [8]", "result": "3 (3=41 to 60%)"}]}, {"smiles": "N#Cc1cccc(Oc2ncc(Cl)cn2)c1SCCCOC(F)(F)F", "note": "[Compound A116, 3-(5-chloropyrimidin-2-yl)oxy-2-[3-(trifluoromethoxy)propylsulfanyl]benzonitrile]", "values": [{"measurement": "% phytotoxicity AMARE, post-emergence application", "setting": "[1]", "result": "5 (5=81 to 100%)"}, {"measurement": "% phytotoxicity IPOHE, post-emergence application", "setting": "[2]", "result": "4 (4=61 to 80%)"}, {"measurement": "% phytotoxicity ECHCG, post-emergence application", "setting": "[3]", "result": "4 (4=61 to 80%)"}, {"measurement": "% phytotoxicity SETFA, post-emergence application", "setting": "Setaria faberi (SETFA) [4]", "result": "4 (4=61 to 80%)"}, {"measurement": "% phytotoxicity AMARE, pre-emergence application", "setting": "[5]", "result": "5 (5=81 to 100%)"}, {"measurement": "% phytotoxicity IPOHE, pre-emergence application", "setting": "[6]", "result": "5 (5=81 to 100%)"}, {"measurement": "% phytotoxicity ECHCG, pre-emergence application", "setting": "[7]", "result": "5 (5=81 to 100%)"}, {"measurement": "% phytotoxicity SETFA, pre-emergence application", "setting": "Setaria faberi (SETFA) [8]", "result": "5 (5=81 to 100%)"}]}]}
